From patent US20040127363A1, “Pesticidal compositions containing silicon compounds” (priority 2000, published 2004)

System: mites and insects
Test: Pesticidal activity in a variety of application forms
Type: in vivo
Conditions: diluted aqueous solutions, emulsions with surfactant, or without any solvent
Description: The pesticidal activity was found both in diluted aqueous solutions and in emulsions together with suitable ionic, amphoteric or non-ionic surfactant, or without any solvent.
The pesticidal activity of the silicon esters of the present invention was tested against mites and insects.

CCCCO[Si](OCCCC)(OCCCC)OCCCC [tetrabutyl ortho silicate]
pesticidal activity: high pesticidal activity
